The values that follow come from patent US11396505B2, “Inhibitors of CaMKK2 and uses of same” (New York University, priority 2019, dated 2022).

The target in one assay is CaMKK2 (Homo sapiens, UniProt Q96RR4). The assay can be described thus: CaMKK1/2 biochemical assay, 32P radiometric kinase assay (CaMKK2). Particulars: for inhibition at 10 µM: 10 μM compound, read-out: CaMKK2 % inhibition @ concentrations shown, 10 μM; for inhibition at 0.5 µM: 0.5 μM compound, read-out: CaMKK2 % inhibition @ concentrations shown, 0.5 μM; for inhibition at 0.2 µM: 0.2 μM compound, read-out: CaMKK2 % inhibition @ concentrations shown, 0.2 μM. The procedure:
(§1) The following is an example of a CaMKK1/2-biochemical assay. Compounds were tested for CaMKK1/2 inhibition using a ^32P radiometric kinase assay as follows: A freshly prepared kinase reaction buffer (20 mM Hepes (pH 7.5), 10 mM MgCl2, 1 mM EGTA, 0.02% Brij35, 0.02 mg/ml BSA, 0.1 mM Na3VO4, 2 mM DTT, 1% DMSO) was treated with Myelin Basic Protein (final concentration=20 μM), CaCl2) (final concentration=1.5 mM), Calmodulin (final concentration=0.96 μM) and either CaMKK2 (final reaction concentration=120 nM) or CaMKK1 (final reaction concentration=150 nM) and gently mixed. Compounds were added as aliquots from 10 mM DMSO stock solutions such that the final compound concentration in the assay was either 10 μM, 0.5 μM or 0.2 μM. This mixture was allowed to incubate for 20 minutes at room temperature. ^32P-ATP (specific activity 10 μCi/μL) was added and the mixture was allowed to incubate for 2 hours at room temperature. The reaction mixture was spotted onto P81 ion exchange paper. The kinase activity was detected by the filter binding method.

Another assay addresses CaMKK1 (Homo sapiens, UniProt Q8N5S9). The assay can be described thus: CaMKK1/2 biochemical assay, 32P radiometric kinase assay (CaMKK1). As to the method:
as §1

Structures are written as SMILES.

One may read the IC50 as the concentration needed to halve the response being measured.

Turning to `O=C(O)c1n[nH]c2ccc(N3CCOC3=O)cc12` [CL-628], the “Biochemical Data CaMKK2, inh @ 0.5 μM” value on CaMKK2 is on record as 22% inh @ 0.5 μM. At CaMKK1, the “Biochemical Data CaMKK1, inh @ 0.5 μM” value is reported as less than 5% inh @ 0.5 μM. The like results for `CCOC(=O)c1n[nH]c2ccc(N3CCOC3=O)cc12` [CL-629] were, in that order, 20% inh @ 0.5 μM and less than 5% inh @ 0.5 μM.

As to `O=C1OCCN1c1ccc2[nH]nc(-c3cccc4ccccc34)c2c1` [CL-666], the “Biochemical Data CaMKK2, inh @ 0.2 μM” value on CaMKK2 was 15% inh @ 0.2 μM. Further, on CaMKK1, the “Biochemical Data CaMKK1, inh @ 0.2 μM” value was less than 5% inh @ 0.2 μM. The corresponding values for `O=C1OCCN1c1ccc2[nH]nc(-c3ccc4cc[nH]c4c3)c2c1` [CL-669] are 55% inh @ 0.2 μM and less than 5% inh @ 0.2 μM.

Turning to `O=C1OCCN1c1ccc2[nH]nc(-c3coc4ccccc34)c2c1` [Example 1, 3-(3-(Benzofuran-3-yl)-1H-indazol-5-yl)oxazolidin-2-one], the inhibition at 10 µM on CaMKK2 is 72%. As to `O=C1OCCN1c1ccc2[nH]nc(-c3cc4ccccc4o3)c2c1` [Example 2, 3-(3-(Benzofuran-2-yl)-1H-indazol-5-yl)oxazolidin-2-one], at CaMKK2, the inhibition at 10 µM is 98%. Also, the IC50 against CaMKK1 came to 164 nM. On to `O=C1OCCN1c1ccc2[nH]nc(-n3ccnc3)c2c1` [Example 5, 3-(3-(1H-imidazol-1-yl)-1H-indazol-5-yl)oxazolidin-2-one], for which, at CaMKK2, the inhibition at 10 µM worked out at 29%. Turning to `O=C1OCCN1c1ccc2[nH]nc(-c3ccccc3)c2c1` [Example 6, 3-(3-phenyl-1H-indazol-5-yl)oxazolidin-2-one], at CaMKK2, the “Biochemical Data CaMKK2, inh @ 0.5 μM” value is 37% inh @ 0.5 μM and the inhibition at 0.5 µM amounted to 37%. The “Biochemical Data CaMKK1, inh @ 0.5 μM” value at CaMKK1 is on record as less than 5% inh @ 0.5 μM.

Take `O=C1OCCN1c1ccc2[nH]nc(-c3cccnc3)c2c1` [Example 7, 3-(3-(pyridin-3-yl)-1H-indazol-5-yl)oxazolidin-2-one]: at CaMKK2, the “Biochemical Data CaMKK2, inh @ 0.5 μM” value is given as 29% inh @ 0.5 μM and the inhibition at 0.5 µM is 29%. Also, the “Biochemical Data CaMKK1, inh @ 0.5 μM” value on CaMKK1 is listed as less than 5% inh @ 0.5 μM. Take `C=Cc1n[nH]c2ccc(N3CCOC3=O)cc12` [Example 8, 3-(3-vinyl-1H-indazol-5-yl)oxazolidin-2-one]: at CaMKK2, the “Biochemical Data CaMKK2, inh @ 0.5 μM” value was determined as 26% inh @ 0.5 μM and the inhibition at 0.5 µM was 26%. Besides, the “Biochemical Data CaMKK1, inh @ 0.5 μM” value at CaMKK1 was determined as 12% inh @ 0.5 μM. For `O=C1OCCN1c1ccc2[nH]nc(/C=C/c3ccccc3)c2c1` [Example 9, (E)-3-(3-styryl-1H-indazol-5-yl)oxazolidin-2-one], at CaMKK2, the inhibition at 0.5 µM came out at 89%. On the same count and under the same terms, for `O=C1OCCN1c1ccc2[nH]nc(/C=C/c3cccnc3)c2c1` [Example 10, (E)-3-(3-(2-(pyridin-3-yl)vinyl)-1H-indazol-5-yl)oxazolidin-2-one] the value was 72%. Still for that read-out and setting: for `O=C1OCCN1c1ccc2[nH]nc(/C=C/c3ccncc3)c2c1` [Example 11, (E)-3-(3-(2-(pyridin-4-yl)vinyl)-1H-indazol-5-yl)oxazolidin-2-one] the value was 80%. For the molecule `O=C1OCCN1c1ccc2[nH]nc(C#Cc3ccccn3)c2c1` [Example 12, 3-(3-(pyridin-2-ylethynyl)-1H-indazol-5-yl)oxazolidin-2-one], at CaMKK2, the “Biochemical Data CaMKK2, inh @ 0.5 μM” value amounted to 52% inh @ 0.5 μM and the inhibition at 0.5 µM stood at 52%. Moreover, the “Biochemical Data CaMKK1, inh @ 0.5 μM” value at CaMKK1 stood at 14% inh @ 0.5 μM. Take `O=C1OCCN1c1ccc2[nH]nc(-c3cc4cccc(Cl)c4[nH]3)c2c1` [Example 14, 3-(3-(7-chloro-1H-indol-2-yl)-1H-indazol-5-yl)oxazolidin-2-one]: the inhibition at 0.2 µM on CaMKK2 is 71%. Same read-out and setting: for `O=C1OCCN1c1ccc2[nH]nc(-c3cc4ccc(Cl)cc4[nH]3)c2c1` [Example 15, 3-(3-(6-chloro-1H-indol-2-yl)-1H-indazol-5-yl)oxazolidin-2-one] the value was 85%. Turning to `O=C1OCCN1c1ccc2[nH]nc(-c3cc4c(Cl)cccc4[nH]3)c2c1` [Example 17, 3-(3-(4-chloro-1H-indol-2-yl)-1H-indazol-5-yl)oxazolidin-2-one], the inhibition at 0.2 µM on CaMKK2 came out at 71%. On the same count and under the same terms, the figure for `COc1cccc2cc(-c3n[nH]c4ccc(N5CCOC5=O)cc34)[nH]c12` [Example 18, 3-(3-(7-methoxy-1H-indol-2-yl)-1H-indazol-5-yl)oxazolidin-2-one] is 61%. The same measure, in the same setting: the figure for `COc1ccc2cc(-c3n[nH]c4ccc(N5CCOC5=O)cc34)[nH]c2c1` [Example 19, 3-(3-(6-methoxy-1H-indol-2-yl)-1H-indazol-5-yl)oxazolidin-2-one] is 87%. On the same count and under the same terms, for `COc1ccc2[nH]c(-c3n[nH]c4ccc(N5CCOC5=O)cc34)cc2c1` [Example 20, 3-(3-(5-methoxy-1H-indol-2-yl)-1H-indazol-5-yl)oxazolidin-2-one] the value was 84%; for `COc1cccc2[nH]c(-c3n[nH]c4ccc(N5CCOC5=O)cc34)cc12` [Example 21, 3-(3-(4-methoxy-1H-indol-2-yl)-1H-indazol-5-yl)oxazolidin-2-one], 84%; for `O=C1OCCN1c1ccc2[nH]nc(-c3ccc4ccccc4c3)c2c1` [Example 25, 3-(3-(naphthalen-2-yl)-1H-indazol-5-yl)oxazolidin-2-one], 67%.

For `O=C1OCCN1c1ccc2[nH]nc(-c3ccc(-c4ccccc4)cc3)c2c1` [Example 27, 3-(3-([1,1′-biphenyl]-4-yl)-1H-indazol-5-yl)oxazolidin-2-one], the inhibition at 0.2 µM at CaMKK2 turned out to be 59%. With `O=C1OCCN1c1ccc2[nH]nc(-c3ccc4cc[nH]c4c3)c2c1` [Example 28, 3-(3-(1H-indol-6-yl)-1H-indazol-5-yl)oxazolidin-2-one], the inhibition at 0.2 µM on CaMKK2 is 44%. Same read-out and setting: the figure for `CN(C)CCNC(=O)c1cccc(/C=C/c2n[nH]c3ccc(N4CCOC4=O)cc23)c1` [Example 29, (E)-N-(2-(dimethylamino)ethyl)-3-(2-(5-(2-oxooxazolidin-3-yl)-1H-indazol-3-yl)vinyl)benzamide] is 63%. On the same count and under the same terms, for `CN(C)CCNC(=O)c1ccc(/C=C/c2n[nH]c3ccc(N4CCOC4=O)cc23)cc1` [Example 30, (E)-N-(2-(dimethylamino)ethyl)-4-(2-(5-(2-oxooxazolidin-3-yl)-1H-indazol-3-yl)vinyl)benzamide] the value was 75%; for `O=S1(=O)CCCN1c1ccc2[nH]nc(-c3cc4ccccc4[nH]3)c2c1` [Example 32, 2-(3-(1H-indol-2-yl)-1H-indazol-5-yl)isothiazolidine 1,1-dioxide], 84%. Same read-out and setting: for `C[C@H]1COC(=O)N1c1ccc2[nH]nc(-c3cc4ccccc4[nH]3)c2c1` [Example 33, (S)-3-(3-(1H-indol-2-yl)-1H-indazol-5-yl)-4-methyloxazolidin-2-one] the value was 90%; for `C[C@@H]1COC(=O)N1c1ccc2[nH]nc(-c3cc4ccccc4[nH]3)c2c1` [Example 34, (R)-3-(3-(1H-indol-2-yl)-1H-indazol-5-yl)-4-methyloxazolidin-2-one], 73%. Consider `O=C1OC[C@H](CO)N1c1ccc2[nH]nc(-c3cc4ccccc4[nH]3)c2c1` [Example 35, (S)-3-(3-(1H-indol-2-yl)-1H-indazol-5-yl)-4-(hydroxymethyl)oxazolidin-2-one], for which the inhibition at 0.2 µM at CaMKK2 came to 68%. On to `O=C1OC[C@@H](CO)N1c1ccc2[nH]nc(-c3cc4ccccc4[nH]3)c2c1` [Example 36, (R)-3-(3-(1H-indol-2-yl)-1H-indazol-5-yl)-4-(hydroxymethyl)oxazolidin-2-one], for which the inhibition at 0.2 µM at CaMKK2 is 57%.

For `O=C1OC[C@H](c2ccccc2)N1c1ccc2[nH]nc(-c3cc4ccccc4[nH]3)c2c1` [Example 37, (S)-3-(3-(1H-indol-2-yl)-1H-indazol-5-yl)-4-phenyloxazolidin-2-one], the inhibition at 0.2 µM on CaMKK2 stood at 74%.

As for `O=C1OC[C@@H](c2ccccc2)N1c1ccc2[nH]nc(-c3cc4ccccc4[nH]3)c2c1` [Example 38, (R)-3-(3-(1H-indol-2-yl)-1H-indazol-5-yl)-4-phenyloxazolidin-2-one], on CaMKK2, the inhibition at 0.2 µM was found to be 50%. Still for that read-out and setting: for `CC(C)[C@H]1COC(=O)N1c1ccc2[nH]nc(-c3cc4ccccc4[nH]3)c2c1` [Example 39, (S)-3-(3-(1H-indol-2-yl)-1H-indazol-5-yl)-4-isopropyloxazolidin-2-one] the value was 72%; for `O=C1CCCN1c1ccc2[nH]nc(-c3cc4ccccc4[nH]3)c2c1` [Example 42, 1-(3-(1H-indol-2-yl)-1H-indazol-5-yl)pyrrolidin-2-one], 56%; for `COC(=O)[C@@H]1CCC(=O)N1c1ccc2[nH]nc(-c3cc4ccccc4[nH]3)c2c1` [Example 43, methyl (S)-1-(3-(1H-indol-2-yl)-1H-indazol-5-yl)-5-oxopyrrolidine-2-carboxylate], 38%. For the molecule `O=C(O)[C@@H]1CCC(=O)N1c1ccc2[nH]nc(-c3cc4ccccc4[nH]3)c2c1` [Example 44, (S)-1-(3-(1H-indol-2-yl)-1H-indazol-5-yl)-5-oxopyrrolidine-2-carboxylic acid], at CaMKK2, the inhibition at 0.2 µM turned out to be 78%.
